Read-outs that look alike come from different tables or passages of the source.
Columns and labels:
in vivo [1] = conditions: FVB, mouse, 10 mg/kg; for concentration at 2 h / concentration at 6 h: intraperitoneal
Description: Blood and brain specimens were harvested at 2 and 6 hours post-dose.
(§1) All dosing solutions were prepared on the day of the study. A serial sacrifice (destructive sampling) design was employed for sample collection. In all the pharmacokinetic studies conducted in non-tumor bearing FVB mice, the group size was 4 at each sampling time point (n = 4). At pre-determined time points, mice were euthanized using a carbon dioxide chamber. Blood was collected by cardiac puncture and transferred to sample tubes coated with heparin. The whole brain was isolated from skull and rinsed with ice-cold distilled water, and superficial meninges were removed by blotting with tissue paper. Plasma was separated by centrifugation of blood samples at 3500 rpm and 4°C for 15 minutes. […] All the samples were stored at -80°C, until further analysis. The concentrations of ispinesib in all the samples were analyzed by LC-MS/MS. Assuming a vascular volume of 1.4% in mouse brain ^5, the concentrations in brain were corrected for residual drug in brain vasculature.
Kp=CbrainCplasma (Equation 4)

GBM1A cells = test: In vitro cytotoxicity assay (CellTiter-Glo, 72 hours); assay type: cell-based, human; conditions: for EC50: Homo sapiens, 72 h, 72 hours, read-out: Ispinesib EC50
Description: TP53(−/−) and PTEN(−/−) cells were seeded into 96-well plates (pre-coated with fibronectin) at a density of 5,000 cells per well in DMEM media with 0.5% FBS, 1% nitrogen supplement, 10 ng/ml of FGF and 10 ng/ml of PDGFAA. Human GBM1A cells were seeded into 96 well plates (pre-coated with laminin) in DMEM media with 1% neuroPlex supplement, 20 ng/ml of EGF and 20 ng/ml of […]. After 24 hours (~70% confluency), cells were exposed to ispinesib (n = 10 wells per concentration) from 0.025–1000 nM with or without 500 nM elacridar co-treatment. The plates were incubated for 72 hours, cell viability measured using CellTiter-Glo ATP-based assay, and read on a luminometer. The dose-response data were fit to the Hill equation.
In vitro potency data was fitted to “log(inhibitor) vs. normalized response - variable slope” equation in GraphPad Prism version 6.04 (GraphPad, La Jolla, CA) to determine half-maximal effective concentration (EC50).

in vivo [2] = conditions: FVB, mouse, iv, 5 mg/kg
Description: A single intravenous bolus dose of 5 mg/kg ispinesib (vehicle: ethanol, Tween 80 and distilled water in volume ratio of 20:2.5:77.5) was administered to FVB wild-type and Mdr1a/b^−/− Bcrp1^−/− mice. This was followed by collection of whole blood and brain samples at 0.17, 0.5, 1, 2, 4, 8 and 15 hours post-dose, and blood samples were centrifuged to separate plasma for further analysis. […] The drug concentrations in all samples were measured by a specific and sensitive LC-MS/MS assay for ispinesib.
as §1
Kp=AUCbrainAUCplasma (Equation 3)
DA= Kp, knockoutKp, wildtype (Equation 5)
Kp,uu=AUCbrain X fu, brain AUCplasma X fu, plasma (Equation 6)
The pharmacokinetic parameters from the concentration-time profiles in plasma and brain were determined by non-compartmental analysis (NCA) using Phoenix WinNonlin version 6.4 (Certara USA, Inc., Princeton, NJ). The AUCplasma and AUCbrain were calculated using the linear trapezoidal method. The standard errors around the mean of AUC was estimated by the sparse sampling module in WinNonlin ^6.

Question: With `Cc1ccc(C(=O)N(CCCN)[C@@H](c2nc3cc(Cl)ccc3c(=O)n2Cc2ccccc2)C(C)C)cc1` [Ispinesib, N-(3-aminopropyl)-N-[(1 R)-1-(3-benzyl-7-chloro-4-oxoquinazolin-2-yl)-2-methylpropyl]-4-methylbenzamide] as the compound, how does the Kp at 2 h (in vivo [1]; brain and plasma, ip) read?
Answer: 0.1 ± 0.08

Question: And the Kp at 6 h (in vivo [1]; brain and plasma, ip)?
Answer: 0.38 ± 0.14

Question: And the concentration at 2 h (in vivo [1]; brain)?
Answer: 80 ± 20 ng/mL

Question: And the concentration at 6 h (in vivo [1]; brain)?
Answer: 270 ± 90 ng/mL

Question: And the concentration at 2 h (in vivo [1]; plasma)?
Answer: 1110 ± 570 ng/mL

Question: And the concentration at 6 h (in vivo [1]; plasma)?
Answer: 730 ± 110 ng/mL

Question: What about the EC50 (GBM1A cells; [Elacridar] 0 nM) of the same compound?
Answer: 1.4 ± 0.2 nM

Question: And the EC50 (GBM1A cells; [Elacridar] 500 nM)?
Answer: 0.5 ± 0.04 nM

Question: And the “Hill Coefficient” value (GBM1A cells; [Elacridar] 0 nM)?
Answer: 1.8 ± 0.3

Question: And the “Hill Coefficient” value (GBM1A cells; [Elacridar] 500 nM)?
Answer: 1.7 ± 0.2

Question: And the Kp uu (in vivo [2]; brain and plasma)?
Answer: 0.02

Question: And the Kp uu (in vivo [2]; brain/plasma)?
Answer: 1

Question: What about the AUC(0-inf) (in vivo [2]; plasma) of the same compound?
Answer: 5800 ng·h/mL

Question: What about the AUC(0-t) (in vivo [2]; plasma) of the same compound?
Answer: 7500 ± 400 ng·h/mL

Question: What about the clearance (in vivo [2]; plasma) of the same compound?
Answer: 9.9 mL/min/kg

Question: What about the half-life (in vivo [2]; plasma) of the same compound?
Answer: 4.8 h

Reference: publication PMC7162859 (Scientific Reports, 2020)
